# Measured values reported in ChEMBL document CHEMBL2074345, “Expression cloning and characterization of a novel multispecific organic anion transporter” (J Biol Chem, 1997).
# Assays:
# [1] = target: T1, Solute carrier family 22 member 6 (Rattus norvegicus, UniProt O35956); assay: TP_TRANSPORTER: uptake in Xenopus laevis oocytes; assay type: functional, cell-based; details: oocyte
# T1 sequence (O35956 whole entry): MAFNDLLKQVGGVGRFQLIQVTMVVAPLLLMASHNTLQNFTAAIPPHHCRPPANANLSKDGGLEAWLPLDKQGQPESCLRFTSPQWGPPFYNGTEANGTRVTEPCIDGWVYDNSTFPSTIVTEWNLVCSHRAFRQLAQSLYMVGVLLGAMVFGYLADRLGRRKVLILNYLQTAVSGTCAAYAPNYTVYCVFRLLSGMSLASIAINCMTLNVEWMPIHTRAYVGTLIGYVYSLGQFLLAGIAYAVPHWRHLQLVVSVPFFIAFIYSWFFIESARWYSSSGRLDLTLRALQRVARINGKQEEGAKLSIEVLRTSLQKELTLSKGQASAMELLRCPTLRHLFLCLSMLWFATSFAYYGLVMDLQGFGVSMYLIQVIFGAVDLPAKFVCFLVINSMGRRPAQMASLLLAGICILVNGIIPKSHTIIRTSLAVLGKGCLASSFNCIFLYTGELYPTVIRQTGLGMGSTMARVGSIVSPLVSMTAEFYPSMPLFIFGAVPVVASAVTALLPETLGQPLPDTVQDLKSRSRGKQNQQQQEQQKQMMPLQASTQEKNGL
# [2] = target: T1, Solute carrier family 22 member 6; assay: TP_TRANSPORTER: inhibition of PAH uptake (PAH: 2 uM, Ethacrynic acid; 2000 uM) in Xenopus laevis oocytes; assay type: functional, cell-based, Oocyte; details: probe PAH (2 uM)
# [3] = target: T1, Solute carrier family 22 member 6; assay: TP_TRANSPORTER: inhibition of PAH uptake (PAH: 2 uM, Nalidixate; 2000 uM) in Xenopus laevis oocytes; assay type: functional, cell-based, Oocyte; details: probe PAH (2 uM)
# [4] = target: T1, Solute carrier family 22 member 6; assay: TP_TRANSPORTER: inhibition of PAH uptake (PAH: 2 uM, Valproic acid; 2000 uM) in Xenopus laevis oocytes; assay type: functional, cell-based, Oocyte; details: probe PAH (2 uM)
Activity [1],SMILES,other results
substrate [+],Nc1nc2c(ncn2[C@@H]2O[C@@H]3COP(=O)(O)O[C@H]3[C@H]2O)c(=O)[nH]1,
substrate [+],O=C(O)CCC(=O)C(=O)O [ALPHA-KETOGLUTARIC ACID],
,C=C(CC)C(=O)c1ccc(OCC(=O)O)c(Cl)c1Cl [ETHACRYNIC ACID],inhibition at 2000 µM [2]: > 85%
,CCn1cc(C(=O)O)c(=O)c2ccc(C)nc21 [NALIDIXIC ACID],inhibition at 2000 µM [3]: > 85%
is not a substrate [-],CC[N+](CC)(CC)CC [TETRYLAMMONIUM],
substrate [+],O=c1[nH]c(=O)c2[nH]c(=O)[nH]c2[nH]1 [URIC ACID],
,CCCC(CCC)C(=O)O [VALPROIC ACID],inhibition at 2000 µM [4]: > 85%
